Values belong to the compound of their own block, whether it stands above or below them.
How the values were obtained:
BRCA2 (−/−) DLD1 cells = assay: PARP proliferation assay (4 day compound dosing), BRCA2 (-/-) DLD1; type: cell-based; settings: Homo sapiens, DLD-1, 96 h, read-out: BRCA2 −/− DLD-1 prolif 4 d IC50
DLD1 cells = assay: PARP proliferation assay (4 day compound dosing), WT DLD1; type: cell-based; settings: Homo sapiens, DLD-1, 96 h, read-out: WT DLD-1 prolif 4 d IC50
[1] = target: T1, Recombinant full length PARP2 protein (Homo sapiens, UniProt Q9UGN5); assay: PARP fluorescence anisotropy binding assay, PARP2
T1 construct: Recombinant full length PARP2 protein
T1 sequence (Q9UGN5 whole entry): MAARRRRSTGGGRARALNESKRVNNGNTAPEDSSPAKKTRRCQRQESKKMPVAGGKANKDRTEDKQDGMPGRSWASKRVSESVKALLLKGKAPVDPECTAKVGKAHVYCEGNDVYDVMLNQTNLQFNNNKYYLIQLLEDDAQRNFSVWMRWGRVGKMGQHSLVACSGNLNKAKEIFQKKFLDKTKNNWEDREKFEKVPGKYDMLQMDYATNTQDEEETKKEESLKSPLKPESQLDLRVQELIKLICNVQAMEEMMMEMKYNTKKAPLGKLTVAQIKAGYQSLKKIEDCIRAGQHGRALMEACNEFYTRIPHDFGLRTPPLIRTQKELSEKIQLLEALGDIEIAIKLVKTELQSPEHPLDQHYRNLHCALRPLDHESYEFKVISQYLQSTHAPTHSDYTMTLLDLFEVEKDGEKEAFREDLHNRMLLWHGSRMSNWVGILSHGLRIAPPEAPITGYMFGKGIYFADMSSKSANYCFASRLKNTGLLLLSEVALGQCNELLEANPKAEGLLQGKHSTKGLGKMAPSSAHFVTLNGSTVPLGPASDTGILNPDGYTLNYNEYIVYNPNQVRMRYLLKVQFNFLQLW

NCI-N87 xenograft = assay: Antitumor test in vivo, NCI-N87 xenograft (Example 5); set-up: species or system Female Nude mice; settings: AZD5305 1 mg/kg PO QD for 28 days
5637 = assay: High-throughput combination screen, 7-day CellTiter-Glo cell viability (Example 6), 5637; type: cell-based; settings: AZD5305 as single agent, HER2 mutant cell line 5637
Method: Combination activity was assessed based on a combination of the ΔEmax and Loewe synergy scores.
FIGS. 18A and 19A show matrices of measured cell viability signals. […] Values in the box represent the ratio of cells treated with drug A+B compared to DMSO control at day 7. All values are normalised to cell viability values at day 0. Values between 0 and 100 represent % growth inhibition and values above 100 represent cell death.
FIGS. 18B and 19B show Loewe excess matrices. Values in the box represent excess values calculated by the Loewe additivity model.
FIGS. 18C and 19C show HSA excess matrices. Values in the box represent excess values calculated by the HSA (Highest Single Agent) model.

SMILES: CCc1cc2ncc(CN3CCN(c4ccc(C(=O)NC)nc4)CC3)cc2[nH]c1=O [Example 4]
IC50 (BRCA2 (−/−) DLD1 cells): > 17 nM

IC50 (BRCA2 (−/−) DLD1 cells): 4 nM | IC50 (DLD1 cells): > 30000 nM
SMILES: CCc1cc2ncc(CN3CCN(c4ccc(C(=O)NC)nc4C(F)(F)F)CC3)cc2[nH]c1=O [Example 30]

IC50 [1]: 3000 nM
SMILES: CCc1cc2ncc(CN3CCN(c4ccc(C(=O)NC)nc4C)CC3)cc2[nH]c1=O [Example 31]

SMILES: CCc1cc2ncc(CN3CCN(c4ccc(C(=O)NC)nc4)CC3)cc2[nH]c1=O [Synthesis Example 4, 5-[4-[(7-ethyl-6-oxo-5H-1,5-naphthyridin-3-yl)methyl]piperazin-1-yl]-N-methyl-pyridine-2-carboxamide]
TGI % day 41 (NCI-N87 xenograft): 40% | single agent activity 5637: not active

Source: patent US12721905B2, “Combination of anti-HER2 antibody-drug conjugate and PARP1 selective inhibitor” (AstraZeneca UK Limited, priority 2020, dated 2026)
